From patent publication US5674878A, “Anellated dihydropyridines and the use thereof for the production of pharmaceutical preparations” (Boehringer Ingelheim KG, priority 1992, dated 1997)

Each compound was assayed on unselective cation channels (UCC) (assay: Thapsigargin (0.1 μM) stimulated Ca^2+ entry through unselective cation channels in fura-2-charged RBL-hm 1 cells). Conditions: RBL-hm 1 cells, Thapsigargin (0.1 μM) stimulation, 10 μM test substance (Table 21).
Type: cell-based, rat
Source text: As a measurement of the cell activation or as a measurement of the inhibition thereof by UCC blockers, the kinetics of the cytoplasmic calcium ion concentration in fura-2-charged cells is quantified fluorometrically using the method described by GRYNKIEWICZ et al. (1985).
Consequently the Ca^2+ -stores are rapidly depleted. As described by J. PUTNEY (Calcium, 11, 611-624, 1990) the depletion of these stores constitutes the physiological stimulation for opening up unselective cation channels in the cell membrane. The result of this is a massive influx of Na^+ and Ca^2+ into the cell. Because of these properties, Thapsigargin is suitable as an indirect stimulator for agonist- and IP3-independent opening up of the unselective cation channels.
The functional endothelin antagonism of the substances according to the invention is mediated through a blockade of the unselective cation channels. Consequently, detection of a functional Thapsigargin-antagonism on RBL-hm1 cells is also a suitable screening method for functional endothelin antagonists.
For screening purposes, fura-2-charged adhesive RBL-hm 1 cells are stimulated with 0.1 μM Thapsigargin in a Ca^2+ -free incubation medium. After 4 minutes, extracellular Ca^2+ is restored to a concentration of 1.5 mM and, using the fura-2-fluorescence, the excessive increase in the cytoplasmic Ca^2+ -concentration caused by a massive transmembranal Ca^2+ -entry through unselective cation channels is recorded.
This entry is to be inhibited solely by unselective cation channel blockers in a dosage-dependent manner. Neither conventional calcium antagonists nor specific blockers of agonists which stimulate the IP3 -turnover are able to inhibit the transmembranal Ca^2+ -entry triggered indirectly by Thapsigargin. The compounds of the present invention are distinguished by their inhibition of UCC.
The fluorometric calcium measurement in the cytoplasm of individual adhering RBL-hm1 cells is carried out analogously to the method described by KUDO and OGURA (1986) for neuronal cells. An AXIOVERT 35 fluorescence microscope made by ZEISS is used in conjunction with an imaging system made by HAMAMATSU, consisting of the ICMS-image processing system, residual light camera with control unit and image intensifier DVS 3000.
The kinetics of the cytoplasmic Ca^2+ -concentration is recorded continuously as a concentration/time curve after the cell activation stimulated by Thapsigargin (0.1 μM). The curves of two activated cell cultures are compared in the presence and absence of 10 μM test substance. The area under these curves (area under the curve=AUC) is integrated and recorded as a measurement of cell activation. The inhibitory potency of the UCC-blockers tested is determined using the following equation: [formula] %H=the percentage inhibition of the calcium entry through unselective cation channels which is stimulated and inhibited by 10 μM of test substance.
AUCinh =area under the curve recorded in the presence of the stimulant plus 10 μM inhibitory test substance.
AUCcontrol =area under the curve which is recorded only after the addition of the stimulant.
The percentage inhibition of UCC after Thapsigargin stimulation (0.1 μM Thapsigargin) in RBL-hm 1 cells is given. The uniform concentration of the test substances is 10^-5 mol).
With `CCOc1ccccc1CCNC(=O)C(=C1NCCc2cc(OC)c(OC)cc21)c1ccccc1` (single isomer, unassigned) [K] the “% Inhibition” value was 76.31%.
In the case of `COc1cc2c(cc1OC)C(=C(C(=O)NCCc1c(OC)cccc1OC)c1ccccc1)NCC2` (single isomer, unassigned) [L], the “% Inhibition” value is reported as 53.14%.
With `COc1cc2c(cc1OC)C(C(C(=O)N(CCc1ccc(OC)c(OC)c1OC)CCc1ccc(OC)c(OC)c1OC)c1ccccc1)=NCC2` (centres unmarked) [38a (oxalate)] the “% Inhibition” value was 52.64%.
In the case of `COc1cc2c(cc1OC)C(C(C(=O)N1CCCC1)c1ccccc1)=NCC2` (centres unmarked) [41 (Structure I)], the “% Inhibition” value is reported as 57.22%.
In the case of `COc1cc2c(cc1OC)C(C(C(=O)NCCc1ccc(OC)c(OC)c1OC)c1ccccc1)=NCC2` (centres unmarked) [B], the “% Inhibition” value is reported as 72.35%.
`COc1cc2c(cc1OC)C(C(C(=O)NCC(c1ccccc1)c1ccccc1)c1ccccc1)=NCC2` (centres unmarked) [C] was tested, and the “% Inhibition” value was 63.45%.
For `COc1cc2c(cc1OC)C(C(C(=O)NCCc1cccc(C(F)(F)F)c1)c1ccccc1)=NCC2` (centres unmarked) [E], the “% Inhibition” value was 81.89%.

Same assay, conditions: Table 13; 10 μM test substance
`NS(=O)(=O)c1ccc(CCNC(=O)C(=C2NCCc3ccsc32)c2ccccc2)cc1` was tested, and the “% Inhib.” value was 50.64%.
In the case of `COc1ccc(CCNC(=O)C(C2=NCCc3ccsc32)c2ccccc2)cc1` (centres unmarked), the “% Inhib.” value is reported as 67.73%.
For `COc1ccc(CCNC(=O)C(=C2NCCc3ccsc32)c2ccccc2)cc1`, the “% Inhib.” value was 65.50%.
In the case of `CCOc1ccccc1CCNC(=O)C(C1=NCCc2ccsc21)c1ccccc1` (centres unmarked), the “% Inhib.” value is reported as 24.03%.
With `O=C(NCCc1cccc(C(F)(F)F)c1)C(C1=NCCc2ccsc21)c1ccccc1` (centres unmarked) the “% Inhib.” value was 43.49%.
In the case of `O=C(NCCc1ccc(Cl)cc1)C(C1=NCCc2ccsc21)c1ccccc1` (centres unmarked), the “% Inhib.” value is reported as 15.26%.
In the case of `O=C(NCCc1ccc(Cl)cc1)C(=C1NCCc2ccsc21)c1ccccc1`, the “% Inhib.” value is reported as 26.54%.
With `O=C(NCCc1ccsc1)C(C1=NCCc2ccsc21)c1ccccc1` (centres unmarked) the “% Inhib.” value was 0.0%.
In the case of `O=C(NCCc1ccsc1)C(=C1NCCc2ccsc21)c1ccccc1`, the “% Inhib.” value is reported as 67.75%.

Same assay, conditions: Table 14; 10 μM test substance
For `COc1cc2c(cc1OC)C(C(C(=O)NCCc1ccc(S(N)(=O)=O)cc1)c1ccccc1)=NCC2` (centres unmarked), the “% Inhib.” value was 79.17%.
For `COc1cc2c(cc1OC)C(C(C(=O)NCCCc1ccccc1)c1ccccc1)=NCC2` (centres unmarked), the “% Inhib.” value was 73.55%.
For `COc1cc2c(cc1OC)C(C(C(=O)NCCC1CCCN1C)c1ccccc1)=NCC2` (centres unmarked), the “% Inhib.” value was 60.82%.
`COc1cc2c(cc1OC)C(C(C(=O)NC(C)CCc1ccccc1)c1ccccc1)=NCC2` (centres unmarked) was tested, and the “% Inhib.” value was 82.76%.
In the case of `COc1ccc(CNC(=O)C(C2=NCCc3cc(OC)c(OC)cc32)c2ccccc2)cc1OC` (centres unmarked), the “% Inhib.” value is reported as 50.90%.
For `COc1ccc(CNC(=O)C(C2=NCCc3cc(OC)c(OC)cc32)c2ccccc2)c(OC)c1` (centres unmarked), the “% Inhib.” value was 56.20%.
With `COc1cc2c(cc1OC)C(C(C(=O)N(CCCc1ccccc1)CCCc1ccccc1)c1ccccc1)=NCC2` (centres unmarked) the “% Inhib.” value was 22.39%.
In the case of `COc1cc2c(cc1OC)C(C(C(=O)NCCc1ccc(C)cc1)c1ccccc1)=NCC2` (centres unmarked), the “% Inhib.” value is reported as 79.60%.
For `COc1cc2c(cc1OC)C(C(C(=O)NCCc1ccc(Cl)c(OCc3ccccc3)c1)c1ccccc1)=NCC2` (centres unmarked), the “% Inhib.” value was 36.71%.
In the case of `COc1cc2c(cc1OC)C(C(C(=O)NCC1CCCCC1)c1ccccc1)=NCC2` (centres unmarked), the “% Inhib.” value is reported as 30.87%.

Same assay, conditions: Table 15; 10 μM test substance
For `COc1cc2c(cc1OC)C(C(C(=O)NCCCc1ccc(C(C)(C)C)cc1)C1CCCCC1)=NCC2` (centres unmarked), the “% Inhib.” value was 84.43%.

Same assay, conditions: Table 16; %inhibition, 10 μM test substance
For `COc1ccc2c(c1)CCN=C2C(C(=O)NCCc1cccc(C(F)(F)F)c1)c1ccccc1` (centres unmarked), the “%” value was 30.41%.
In the case of `O=C(NCCc1cccc(C(F)(F)F)c1)C(C1=NCCc2cc(OCc3ccccc3)ccc21)c1ccccc1` (centres unmarked), the “%” value is reported as 14.65%.
With `Cc1cc2c(cc1OCc1ccccc1)CCN=C2C(C(=O)NCCc1cccc(C(F)(F)F)c1)c1ccccc1` (centres unmarked) the “%” value was 49.03%.
In the case of `COc1cc2c(cc1OCc1ccccc1)CCN=C2C(C(=O)NCCc1cccc(C(F)(F)F)c1)c1ccccc1` (centres unmarked), the “%” value is reported as 31.8%.
For `COc1cc2c(cc1OCc1ccccc1)C(C(C(=O)NCCc1cccc(C(F)(F)F)c1)c1ccccc1)=NCC2` (centres unmarked), the “%” value was 22.9%.
For `COc1cc2c(cc1C)C(C(C(=O)N(Cc1ccccc1)Cc1ccccc1)c1ccccc1)=NCC2` (centres unmarked), the “%” value was 58.3%.

Same assay, conditions: Table 17; 10 μM test substance
With `COc1cc(N=[N+]=[N-])c(I)cc1CCNC(=O)C(C1=NCCc2cc(OC)c(OC)cc21)c1ccccc1` (centres unmarked) the “percent inhibition of Ca2+ entry” value was 36.95%.
In the case of `COc1ccccc1CCNC(=O)C(C1=NCCc2cc(OC)c(OC)cc21)c1ccccc1` (centres unmarked), the “percent inhibition of Ca2+ entry” value is reported as 69.7%.
With `COc1ccc(CCN(CC(C)C)C(=O)C(C2=NCCc3cc(OC)c(OC)cc32)c2ccccc2)cc1OC` (centres unmarked) the “percent inhibition of Ca2+ entry” value was 12.82%.
With `COc1cc2c(cc1OC)C(C(C(=O)NCCOc1cccc3ccccc13)c1ccccc1)=NCC2` (centres unmarked) the “percent inhibition of Ca2+ entry” value was 59%.
`COc1cc2c(cc1OC)C(C(C(=O)NC(C)COc1c(C)cccc1C)c1ccccc1)=NCC2` (centres unmarked) was tested, and the “percent inhibition of Ca2+ entry” value was 72.18%.
`COc1cccc(OCCN2CCN(C(=O)C(C3=NCCc4cc(OC)c(OC)cc43)c3ccccc3)CC2)c1` (centres unmarked) was tested, and the “percent inhibition of Ca2+ entry” value was 41.06%.
In the case of `COc1cc2c(cc1OC)C(C(C(=O)N1CCN(c3nc(N)c4cc(OC)c(OC)cc4n3)CC1)c1ccccc1)=NCC2` (centres unmarked), the “percent inhibition of Ca2+ entry” value is reported as 7.77%.
With `COc1cccc(OCCNC(=O)C(C2=NCCc3cc(OC)c(OC)cc32)c2ccccc2)c1` (centres unmarked) the “percent inhibition of Ca2+ entry” value was 45.26%.
For `COc1ccc2c(c1)CCN(C(=O)C(C1=NCCc3cc(OC)c(OC)cc31)c1ccccc1)C2` (centres unmarked), the “percent inhibition of Ca2+ entry” value was 33.06%.
`COc1cc2c(cc1OC)C(C(C(=O)NC(C)(C)C)c1ccccc1)=NCC2` (centres unmarked) was tested, and the “percent inhibition of Ca2+ entry” value was 81.60%.
With `COc1cc2c(cc1OC)C(C(C(=O)NCC(C)(C)C)c1ccccc1)=NCC2` (centres unmarked) the “percent inhibition of Ca2+ entry” value was 81.51%.

Same assay, conditions: Table 18; 10 μM test substance
`COc1cc2c(cc1OC)C(C(C(=O)N(CCc1ccc(OC)c(OC)c1OC)CCc1ccc(OC)c(OC)c1OC)c1ccccc1OC)=NCC2` (centres unmarked) was tested, and the “percent inhibition of Ca2+ entry” value was 41.8%.
In the case of `COc1cccc(C(C(=O)N(CCc2ccc(OC)c(OC)c2OC)CCc2ccc(OC)c(OC)c2OC)C2=NCCc3cc(OC)c(OC)cc32)c1` (centres unmarked), the “percent inhibition of Ca2+ entry” value is reported as 24.3%.
For `COc1ccc(C(C(=O)N(CCc2ccc(OC)c(OC)c2OC)CCc2ccc(OC)c(OC)c2OC)C2=NCCc3cc(OC)c(OC)cc32)cc1` (centres unmarked), the “percent inhibition of Ca2+ entry” value was 73.7%.
With `COc1ccc(C(C(=O)N(CCc2ccc(OC)c(OC)c2OC)CCc2ccc(OC)c(OC)c2OC)C2=NCCc3cc(OC)c(OC)cc32)cc1OC` (centres unmarked) the “percent inhibition of Ca2+ entry” value was 53.1%.
For `COc1cc2c(cc1OC)C(C(C(=O)N(CCc1ccc(OC)c(OC)c1OC)CCc1ccc(OC)c(OC)c1OC)c1ccccc1C)=NCC2` (centres unmarked), the “percent inhibition of Ca2+ entry” value was 68.22%.
`COc1cc2c(cc1OC)C(C(C(=O)N(CCc1ccc(OC)c(OC)c1OC)CCc1ccc(OC)c(OC)c1OC)c1ccc(Cl)cc1Cl)=NCC2` (centres unmarked) was tested, and the “percent inhibition of Ca2+ entry” value was 30.79%.
In the case of `COc1cc2c(cc1OC)C(C(C(=O)N(CCc1ccc(OC)c(OC)c1OC)CCc1ccc(OC)c(OC)c1OC)c1ccc(F)cc1)=NCC2` (centres unmarked), the “percent inhibition of Ca2+ entry” value is reported as 54.30%.
With `COc1cc2c(cc1OC)C(C(C(=O)N(CCc1ccc(OC)c(OC)c1OC)CCc1ccc(OC)c(OC)c1OC)c1ccc(N=[N+]=[N-])cc1)=NCC2` (centres unmarked) the “percent inhibition of Ca2+ entry” value was 61.3%.
In the case of `COc1cc2c(cc1OC)C(C(C(=O)N(CCc1ccc(OC)c(OC)c1OC)CCc1ccc(OC)c(OC)c1OC)c1ccc(N=[N+]=[N-])c(I)c1)=NCC2` (centres unmarked), the “percent inhibition of Ca2+ entry” value is reported as 5.81%.
In the case of `COc1cc2c(cc1OC)C(C(CC1CCC1)C(=O)N(CCc1ccc(OC)c(OC)c1OC)CCc1ccc(OC)c(OC)c1OC)=NCC2` (centres unmarked), the “percent inhibition of Ca2+ entry” value is reported as 56.0%.

Same assay, conditions: Table 19; 10 μM test substance
With `COc1ccccc1CCNC(=O)C(C1=NCCc2cc(OC)c(OC)cc21)c1ccc(N=[N+]=[N-])cc1` (centres unmarked) the “percent inhibition of Ca2+ entry” value was 50.58%.

Same assay, conditions: Table 20; 10 μM test substance
In the case of `Cc1cc2c(cc1OCc1ccccc1)CCN=C2C(C(=O)NCCc1cccc(C(F)(F)F)c1)c1ccccc1` (centres unmarked), the “percent inhibition of Ca2+ entry” value is reported as 49.03%.
